The values that follow come from publication PMC4047216 (European journal of pharmacology, 2014).

The test system of one series is HP-LTLC cells. The experiment in a line: MTT combination of VN/14-1 with thapsigargin, Chou-Talalay analysis. In kind it is cell-based, human. The following applies: in combination VN/14-1 + thapsigargin.
The conditions of series [1]: ref Saadeddin et al., 2004; cited from earlier work.

With `C/C=C(/C)C(=O)O[C@H]1C(C)=C2[C@H]([C@@H]1OC(=O)CCCCCCC)[C@@](C)(OC(C)=O)C[C@H](OC(=O)CCC)[C@@]1(O)[C@H]2OC(=O)[C@@]1(C)O` [thapsigargin], the “DRI (dose reduction index)” value in the series on HP-LTLC cells (50% inhibition) came to 11.498; in the series on HP-LTLC cells (75% inhibition), 31.584; with HP-LTLC cells (95% inhibition) it was 172.494.

Take `CC1=C(/C=C/C(C)=C/C=C/C(C)=C/C(=O)O)C(C)(C)CCC1` [ATRA]: in series [1], the “Oral bioavailability (F)” value is ~ 40%.
